Test results from ChEMBL document CHEMBL1201862, “PubChem BioAssay data set” (2004).
Values belong to the compound of their own block, whether it stands above or below them. Active and inactive are the calls of the source.

How the values were obtained:
Escherichia coli [1] = assay: microbe, parasite or virus in culture
Escherichia coli [2] = assay: microbe, parasite or virus in culture; remark: listed apart in the source
Cytochrome P450 3A4 = Cytochrome P450 3A4 (Homo sapiens, UniProt P08684);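 further: CYP3A4 tested as one member of a cytochrome P450 panel screen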
Cytochrome P450 2C19 = Cytochrome P450 2C19 (Homo sapiens, UniProt P33261); assay: Cytochrome panel assay with activity outcomes. Panel member name: p450-cyp2c19 Compounds with AC50 equal or less than 10 uM are considered active; format: functional
Cytochrome P450 1A2 = molecular target: T1, Cytochrome P450 1A2 (Homo sapiens, UniProt P05177);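 further: PubChem cytochrome P450 panel assay, CYP1A2 panel member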
T1 sequence (P05177 whole entry): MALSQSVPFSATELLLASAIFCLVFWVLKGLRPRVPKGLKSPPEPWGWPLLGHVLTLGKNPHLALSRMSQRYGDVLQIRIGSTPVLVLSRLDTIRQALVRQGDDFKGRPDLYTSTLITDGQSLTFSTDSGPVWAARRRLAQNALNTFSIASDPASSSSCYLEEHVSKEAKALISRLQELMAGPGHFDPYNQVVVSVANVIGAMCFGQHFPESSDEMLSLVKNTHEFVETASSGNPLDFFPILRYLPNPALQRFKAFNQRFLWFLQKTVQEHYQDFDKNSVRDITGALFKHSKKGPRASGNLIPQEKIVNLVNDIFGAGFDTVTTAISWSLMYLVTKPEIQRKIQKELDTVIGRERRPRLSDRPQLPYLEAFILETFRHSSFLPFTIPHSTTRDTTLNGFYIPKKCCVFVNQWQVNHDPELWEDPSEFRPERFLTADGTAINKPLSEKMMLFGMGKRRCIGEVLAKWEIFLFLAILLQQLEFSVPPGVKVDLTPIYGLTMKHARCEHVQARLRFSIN

Cytochrome P450 2C9 = Cytochrome P450 2C9 (Homo sapiens, UniProt P11712)
[3] = decrease of insulin promoter-GFP reporter – imaging, high-content screening, mouse beta cells (AID 1628); format: functional; settings: MIN6
[4] = MIN6 cell viability loss – mouse insulinoma, cytotoxicity control, dose response (AID 2122); format: functional;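 further: confirmatory high-throughput counterscreen run to flag cytotoxic compounds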
Fatty acid synthase [5] = molecular target: T2, Fatty acid synthase (Homo sapiens, UniProt P49327); assay: inhibition of human FAS-TE enzyme activity – biochemical, kinetic fluorescence intensity, dose response (AID 624326); format: functional;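 further: rate of fluorescence rise from hydrolysis of a fluorogenic O-methyl fluorescein ester substrate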
Large T antigen = Large T antigen (Simian virus 40, UniProt P03070); format: functional, Betapolyomavirus macacae;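 further: Confirmatory-stage PubChem screen for compounds that inhibit SV40 T antigen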
Fatty acid synthase [6] = molecular target: T2, Fatty acid synthase; assay: inhibition of human FAS-TE enzyme activity – biochemical, endpoint fluorescence intensity, uHTS hits, dose response (AID 624327); format: functional;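 further: fluorescence from hydrolysis of an O-methyl fluorescein acyl ester substrate by the enzyme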
Genome polyprotein = Genome polyprotein (dengue virus type 2, UniProt P29990); assay: flavivirus cap methylation enzyme inhibition – biochemical, confirmation dose response, primary screen (AID 588689); format: functional
[7] = molecular target: Induced myeloid leukemia cell differentiation protein Mcl-1 (Homo sapiens, UniProt Q07820); format: functional
[8] = molecular target: T3, Corticotropin-releasing factor receptor 2/Corticotropin-releasing factor-binding protein (Homo sapiens, UniProt P24387+Q13324); assay: activators of CRF receptor 2 with binding protein – uHTS hits, confirmation (AID 602473); format: functional; settings: read-out: EC50_Mean
T3 sequence (Q13324 whole entry): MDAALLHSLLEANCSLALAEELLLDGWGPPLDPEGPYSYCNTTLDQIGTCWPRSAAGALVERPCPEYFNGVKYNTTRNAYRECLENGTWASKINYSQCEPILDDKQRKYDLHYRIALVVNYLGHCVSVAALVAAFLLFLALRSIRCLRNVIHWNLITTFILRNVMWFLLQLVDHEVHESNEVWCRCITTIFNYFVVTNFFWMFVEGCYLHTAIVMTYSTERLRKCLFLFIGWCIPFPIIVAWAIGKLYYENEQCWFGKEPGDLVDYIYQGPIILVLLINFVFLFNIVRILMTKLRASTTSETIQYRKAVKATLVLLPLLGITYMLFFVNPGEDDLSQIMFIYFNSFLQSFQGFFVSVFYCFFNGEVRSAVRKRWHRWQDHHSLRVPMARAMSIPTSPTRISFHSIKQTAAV
T3 sequence (P24387 whole entry): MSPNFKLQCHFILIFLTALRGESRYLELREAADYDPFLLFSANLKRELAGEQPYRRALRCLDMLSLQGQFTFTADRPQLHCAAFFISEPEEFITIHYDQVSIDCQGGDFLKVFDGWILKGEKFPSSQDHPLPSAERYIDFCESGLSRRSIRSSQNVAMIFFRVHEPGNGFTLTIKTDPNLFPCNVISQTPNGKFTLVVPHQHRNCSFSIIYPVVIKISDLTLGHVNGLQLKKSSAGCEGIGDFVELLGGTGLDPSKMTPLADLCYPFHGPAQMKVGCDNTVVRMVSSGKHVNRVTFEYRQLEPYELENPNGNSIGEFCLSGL

[9] = molecular target: T4, Short transient receptor potential channel 4 (Mus musculus, UniProt Q9QUQ5); assay: calcium entry via TRPC4 opening agents – cell-based, HEK293 TRPC4/mu-opioid, Fluo-4 calcium, dose response (AID 434937); format: functional
T4 sequence (Q9QUQ5 whole entry): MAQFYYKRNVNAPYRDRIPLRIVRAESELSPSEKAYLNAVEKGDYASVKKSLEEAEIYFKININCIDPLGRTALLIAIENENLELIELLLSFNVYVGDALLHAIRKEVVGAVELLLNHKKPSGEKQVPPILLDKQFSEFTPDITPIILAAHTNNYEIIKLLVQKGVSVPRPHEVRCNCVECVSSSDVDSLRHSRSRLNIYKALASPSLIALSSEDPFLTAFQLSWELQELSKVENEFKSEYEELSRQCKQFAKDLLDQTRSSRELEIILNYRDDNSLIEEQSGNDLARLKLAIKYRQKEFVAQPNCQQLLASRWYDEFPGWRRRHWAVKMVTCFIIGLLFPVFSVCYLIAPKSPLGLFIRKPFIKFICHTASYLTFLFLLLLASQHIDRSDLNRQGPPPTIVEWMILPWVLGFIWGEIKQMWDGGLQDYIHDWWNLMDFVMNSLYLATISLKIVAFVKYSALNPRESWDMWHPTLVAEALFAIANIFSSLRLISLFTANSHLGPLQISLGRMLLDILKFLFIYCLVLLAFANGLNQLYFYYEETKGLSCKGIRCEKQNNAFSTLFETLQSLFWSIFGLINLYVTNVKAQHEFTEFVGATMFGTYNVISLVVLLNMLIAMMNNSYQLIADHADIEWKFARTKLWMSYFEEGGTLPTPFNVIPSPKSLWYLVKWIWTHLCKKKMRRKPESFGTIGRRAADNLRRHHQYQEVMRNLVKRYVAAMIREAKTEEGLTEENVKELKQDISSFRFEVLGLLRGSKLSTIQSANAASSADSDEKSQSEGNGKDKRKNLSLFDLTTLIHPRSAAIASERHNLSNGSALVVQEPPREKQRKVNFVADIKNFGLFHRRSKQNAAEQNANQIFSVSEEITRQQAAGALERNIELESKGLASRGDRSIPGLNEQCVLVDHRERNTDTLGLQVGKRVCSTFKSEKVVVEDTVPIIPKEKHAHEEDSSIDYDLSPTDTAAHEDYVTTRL

[10] = NIH-3T3 fibroblast cytotoxicity, dose response, cytotoxicity control, cell-based, fluorescence, Alamar Blue, secondary assay (AID 2327); format: functional;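 further: NIH-3T3 mouse fibroblasts cultured with fluconazole at 8 µg/mL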
[11] = molecular target: T5, Heat shock factor protein 1 (Mus musculus, UniProt P38532); assay: enhancement of HSF1-driven luciferase signal – cell-based, NIH3T3, luminescence, dose retest, confirmation (AID 435004); format: functional;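 further: stress induced by proteasome inhibitor MG132 added 30 min after compound; luciferase reporter driven by HSF1 response element in NIH3T3 cells; actives raise luminescence as potentiators of the MG132 stress response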
T5 sequence (P38532 whole entry): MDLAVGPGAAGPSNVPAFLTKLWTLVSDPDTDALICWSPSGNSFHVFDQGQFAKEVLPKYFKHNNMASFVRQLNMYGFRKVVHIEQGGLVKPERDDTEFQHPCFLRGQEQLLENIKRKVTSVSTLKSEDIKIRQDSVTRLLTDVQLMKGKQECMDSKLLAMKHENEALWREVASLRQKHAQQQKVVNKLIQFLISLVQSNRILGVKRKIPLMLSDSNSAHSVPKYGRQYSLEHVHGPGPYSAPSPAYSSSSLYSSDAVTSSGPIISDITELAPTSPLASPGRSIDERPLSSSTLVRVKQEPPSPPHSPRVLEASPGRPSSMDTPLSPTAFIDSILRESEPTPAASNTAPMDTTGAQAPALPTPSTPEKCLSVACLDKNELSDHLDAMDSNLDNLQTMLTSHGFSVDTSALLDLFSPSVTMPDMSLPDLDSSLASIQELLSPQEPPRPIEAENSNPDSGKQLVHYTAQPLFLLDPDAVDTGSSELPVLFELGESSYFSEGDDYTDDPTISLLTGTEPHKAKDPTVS

Chain of Cytochrome P450 2C19 (P33261 whole entry): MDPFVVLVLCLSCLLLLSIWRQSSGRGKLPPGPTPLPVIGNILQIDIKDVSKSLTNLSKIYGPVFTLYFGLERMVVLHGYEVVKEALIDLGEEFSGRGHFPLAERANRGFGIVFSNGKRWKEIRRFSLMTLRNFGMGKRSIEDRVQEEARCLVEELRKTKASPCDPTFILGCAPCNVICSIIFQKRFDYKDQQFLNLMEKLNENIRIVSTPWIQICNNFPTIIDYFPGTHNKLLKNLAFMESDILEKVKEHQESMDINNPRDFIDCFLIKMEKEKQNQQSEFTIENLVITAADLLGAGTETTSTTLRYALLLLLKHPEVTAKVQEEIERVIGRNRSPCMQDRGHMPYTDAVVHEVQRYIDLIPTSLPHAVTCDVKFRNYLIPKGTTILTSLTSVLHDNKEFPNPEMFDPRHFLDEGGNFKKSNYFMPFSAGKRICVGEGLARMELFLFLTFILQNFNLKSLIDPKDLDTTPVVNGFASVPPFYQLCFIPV
Chain of Cytochrome P450 2C9 (P11712 whole entry): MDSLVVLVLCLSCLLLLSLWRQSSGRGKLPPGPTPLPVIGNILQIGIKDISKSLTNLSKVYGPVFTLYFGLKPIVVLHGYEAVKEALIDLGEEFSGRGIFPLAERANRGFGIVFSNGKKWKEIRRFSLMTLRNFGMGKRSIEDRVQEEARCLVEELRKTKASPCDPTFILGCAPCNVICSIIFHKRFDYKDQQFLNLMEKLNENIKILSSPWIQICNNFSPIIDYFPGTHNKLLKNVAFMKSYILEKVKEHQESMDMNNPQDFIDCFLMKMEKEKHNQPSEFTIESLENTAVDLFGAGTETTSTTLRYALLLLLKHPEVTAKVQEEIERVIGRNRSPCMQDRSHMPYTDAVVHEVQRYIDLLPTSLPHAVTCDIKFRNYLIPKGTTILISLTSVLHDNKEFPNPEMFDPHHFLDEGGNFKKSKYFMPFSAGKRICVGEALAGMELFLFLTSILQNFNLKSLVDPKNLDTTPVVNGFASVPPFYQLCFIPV
Chain of Induced myeloid leukemia cell differentiation protein Mcl-1 (Q07820 whole entry): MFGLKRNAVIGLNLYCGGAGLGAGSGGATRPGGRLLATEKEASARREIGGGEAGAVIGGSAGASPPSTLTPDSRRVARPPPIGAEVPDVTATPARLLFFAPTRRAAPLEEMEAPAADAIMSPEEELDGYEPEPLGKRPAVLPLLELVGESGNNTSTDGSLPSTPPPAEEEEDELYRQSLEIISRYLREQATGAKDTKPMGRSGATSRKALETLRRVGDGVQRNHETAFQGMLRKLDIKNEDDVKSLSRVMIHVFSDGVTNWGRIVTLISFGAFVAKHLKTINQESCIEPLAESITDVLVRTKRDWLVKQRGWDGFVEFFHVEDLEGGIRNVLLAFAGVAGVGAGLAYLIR
T2 sequence (P49327 whole entry): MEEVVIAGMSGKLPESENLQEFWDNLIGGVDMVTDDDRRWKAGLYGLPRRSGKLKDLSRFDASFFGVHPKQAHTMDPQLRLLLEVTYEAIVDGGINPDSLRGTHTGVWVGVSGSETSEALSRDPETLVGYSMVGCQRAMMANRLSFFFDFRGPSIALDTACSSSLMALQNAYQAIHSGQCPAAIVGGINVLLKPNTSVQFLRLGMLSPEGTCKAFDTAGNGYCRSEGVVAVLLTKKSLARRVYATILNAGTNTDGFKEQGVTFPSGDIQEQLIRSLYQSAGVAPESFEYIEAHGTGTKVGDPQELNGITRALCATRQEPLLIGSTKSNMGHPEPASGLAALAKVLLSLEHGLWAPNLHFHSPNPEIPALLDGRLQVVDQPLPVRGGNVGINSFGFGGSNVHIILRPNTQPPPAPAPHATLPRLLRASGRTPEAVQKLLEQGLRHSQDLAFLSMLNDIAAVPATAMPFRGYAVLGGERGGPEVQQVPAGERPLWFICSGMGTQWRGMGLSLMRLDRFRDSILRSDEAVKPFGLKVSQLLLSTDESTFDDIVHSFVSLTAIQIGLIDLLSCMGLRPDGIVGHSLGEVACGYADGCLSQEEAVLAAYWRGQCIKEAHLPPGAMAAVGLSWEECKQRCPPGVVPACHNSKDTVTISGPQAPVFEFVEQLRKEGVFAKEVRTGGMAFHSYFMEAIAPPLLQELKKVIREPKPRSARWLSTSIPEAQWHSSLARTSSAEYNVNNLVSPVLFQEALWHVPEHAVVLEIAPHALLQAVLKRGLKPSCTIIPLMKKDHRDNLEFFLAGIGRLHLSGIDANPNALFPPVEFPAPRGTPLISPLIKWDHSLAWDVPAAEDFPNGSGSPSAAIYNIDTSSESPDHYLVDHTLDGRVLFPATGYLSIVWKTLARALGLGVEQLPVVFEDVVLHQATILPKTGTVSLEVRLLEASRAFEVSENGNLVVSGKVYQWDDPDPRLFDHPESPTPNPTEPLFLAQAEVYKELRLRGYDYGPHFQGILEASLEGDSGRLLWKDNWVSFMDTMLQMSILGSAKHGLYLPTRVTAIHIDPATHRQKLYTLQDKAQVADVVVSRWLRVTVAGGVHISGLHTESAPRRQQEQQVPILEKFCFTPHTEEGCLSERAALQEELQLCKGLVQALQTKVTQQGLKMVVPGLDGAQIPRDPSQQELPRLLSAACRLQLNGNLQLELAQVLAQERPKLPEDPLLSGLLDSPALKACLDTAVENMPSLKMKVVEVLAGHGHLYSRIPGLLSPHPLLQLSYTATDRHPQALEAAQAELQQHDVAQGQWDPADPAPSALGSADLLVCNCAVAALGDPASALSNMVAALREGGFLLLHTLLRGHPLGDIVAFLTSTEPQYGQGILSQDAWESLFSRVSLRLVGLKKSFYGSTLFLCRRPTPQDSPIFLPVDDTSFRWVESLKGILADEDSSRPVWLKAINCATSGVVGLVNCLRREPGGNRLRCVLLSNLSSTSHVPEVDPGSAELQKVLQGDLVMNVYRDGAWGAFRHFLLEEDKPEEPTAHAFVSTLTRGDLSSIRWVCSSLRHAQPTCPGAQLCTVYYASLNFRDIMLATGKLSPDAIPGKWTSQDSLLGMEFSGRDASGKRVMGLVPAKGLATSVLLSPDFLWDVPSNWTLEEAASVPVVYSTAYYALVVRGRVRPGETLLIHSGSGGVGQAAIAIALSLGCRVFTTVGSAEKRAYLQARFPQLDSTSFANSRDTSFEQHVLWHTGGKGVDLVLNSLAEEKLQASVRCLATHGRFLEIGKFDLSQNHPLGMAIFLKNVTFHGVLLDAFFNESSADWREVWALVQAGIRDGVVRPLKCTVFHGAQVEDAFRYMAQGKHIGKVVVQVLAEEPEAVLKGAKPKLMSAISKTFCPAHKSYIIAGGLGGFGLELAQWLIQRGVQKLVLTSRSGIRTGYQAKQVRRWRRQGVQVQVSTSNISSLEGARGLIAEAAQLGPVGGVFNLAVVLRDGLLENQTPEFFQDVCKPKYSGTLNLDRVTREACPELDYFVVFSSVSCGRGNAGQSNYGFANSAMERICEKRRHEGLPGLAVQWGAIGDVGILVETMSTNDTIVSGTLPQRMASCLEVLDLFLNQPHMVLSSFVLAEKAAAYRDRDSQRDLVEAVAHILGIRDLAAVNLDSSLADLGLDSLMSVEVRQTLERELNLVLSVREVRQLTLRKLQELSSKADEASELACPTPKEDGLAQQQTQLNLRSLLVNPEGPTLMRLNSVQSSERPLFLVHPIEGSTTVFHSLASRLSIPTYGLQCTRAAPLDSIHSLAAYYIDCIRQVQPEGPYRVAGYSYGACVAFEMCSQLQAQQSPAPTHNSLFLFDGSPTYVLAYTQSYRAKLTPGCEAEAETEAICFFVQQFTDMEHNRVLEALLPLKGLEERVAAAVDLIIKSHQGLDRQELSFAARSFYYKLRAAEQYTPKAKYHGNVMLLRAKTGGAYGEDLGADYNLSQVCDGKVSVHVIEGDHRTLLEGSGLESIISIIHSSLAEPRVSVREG
Chain of Genome polyprotein (P29990 2492-3391 limits assumed): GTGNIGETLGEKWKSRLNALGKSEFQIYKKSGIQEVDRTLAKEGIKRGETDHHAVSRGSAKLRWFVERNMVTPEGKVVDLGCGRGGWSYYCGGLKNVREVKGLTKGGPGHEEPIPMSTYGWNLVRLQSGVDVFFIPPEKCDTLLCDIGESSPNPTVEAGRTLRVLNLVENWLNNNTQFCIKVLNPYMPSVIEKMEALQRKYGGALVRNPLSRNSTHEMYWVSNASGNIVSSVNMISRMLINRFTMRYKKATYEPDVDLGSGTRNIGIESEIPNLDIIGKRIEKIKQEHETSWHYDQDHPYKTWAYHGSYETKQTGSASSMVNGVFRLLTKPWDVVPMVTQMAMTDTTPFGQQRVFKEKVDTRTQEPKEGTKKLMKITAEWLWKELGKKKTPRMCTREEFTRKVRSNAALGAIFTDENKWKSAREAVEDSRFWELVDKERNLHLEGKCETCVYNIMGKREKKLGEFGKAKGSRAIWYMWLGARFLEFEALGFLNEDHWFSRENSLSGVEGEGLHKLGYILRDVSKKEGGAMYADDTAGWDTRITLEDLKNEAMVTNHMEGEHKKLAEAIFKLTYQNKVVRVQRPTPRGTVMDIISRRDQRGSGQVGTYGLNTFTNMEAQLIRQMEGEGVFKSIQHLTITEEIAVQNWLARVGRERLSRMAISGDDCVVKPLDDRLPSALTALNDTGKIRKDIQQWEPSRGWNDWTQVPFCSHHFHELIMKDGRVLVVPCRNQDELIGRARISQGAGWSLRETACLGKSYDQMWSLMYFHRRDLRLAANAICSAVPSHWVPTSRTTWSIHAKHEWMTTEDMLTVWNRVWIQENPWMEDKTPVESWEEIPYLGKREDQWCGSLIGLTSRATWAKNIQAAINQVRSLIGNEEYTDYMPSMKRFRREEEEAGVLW

Structure (SMILES): C[C@H]1c2cccc(O)c2C(=O)C2=C(O)C3(O)C(O)=C(C(N)=O)C(=O)[C@@H](N(C)C)[C@@H]3[C@@H](O)[C@@H]21 (some centres undefined)
AC50 (Escherichia coli [1]): 30 µM (active)
AC50 (Escherichia coli [2]): 1.13 µM (active)

AC50 (Cytochrome P450 3A4): inconclusive
AC50 (Cytochrome P450 2C19; read-out: AC50): 39.8 µM (inconclusive)
AC50 (Cytochrome P450 1A2): 25.1 µM (inconclusive)
AC50 (Cytochrome P450 2C9): inconclusive
Structure (SMILES): Cn1cccc1C(=O)N1CCC2(CC1)CN(c1cccc(-c3ccccc3)c1)C2

AC50 (Cytochrome P450 2C19): inconclusive
AC50 (Cytochrome P450 2C9): inconclusive
Structure (SMILES): O=C(N/N=C/c1cccc(C(F)(F)F)c1)C1CCN(c2ncc(C(F)(F)F)cc2Cl)CC1

Structure (SMILES): CO[C@H]1/C=C/O[C@@]2(C)Oc3c(C)c(O)c4c(O)c(c(/C=N/N5CCN(C)CC5)c(O)c4c3C2=O)NC(=O)/C(C)=C\C=C\[C@H](C)[C@H](O)[C@@H](C)[C@@H](O)[C@@H](C)[C@H](OC(C)=O)[C@@H]1C [RIFAMPIN]
AC50 (Escherichia coli [2]): 32.3 µM (active)

Structure (SMILES): Clc1ccc(CN2CCN(c3ncnc4scc(-c5cccs5)c34)CC2)cc1
IC50 [3]: 2.39 µM (active)
IC50 [4]: 2.12 µM (active)

Structure (SMILES): COc1ccc(S(=O)(=O)N2CCCC2)c(Cl)c1Cl
AC50 (Escherichia coli [1]): 71.3 µM (active)
AC50 (Escherichia coli [2]): 37.7 µM (active)

IC50 (Fatty acid synthase [5]): 2.54 µM (active)
IC50 (Large T antigen): 59.9 µM (active)
IC50 (Fatty acid synthase [6]): 2.23 µM (active)
IC50 (Genome polyprotein): 59.6 µM (active)
IC50 [7]: 5.15 µM (active)
Structure (SMILES): Cc1nc2ccc(NC(=O)c3cc([N+](=O)[O-])cc([N+](=O)[O-])c3Cl)cc2s1

EC50 [8]: 7.94 µM (active)
EC50 [9]: 5.96 µM (active)
Structure (SMILES): CCN1C(=O)c2cccc3c(S(=O)(=O)Nc4ccccc4OC)ccc1c23

AC50 (Cytochrome P450 2C19): inconclusive
AC50 (Cytochrome P450 2C9): inconclusive
Structure (SMILES): O=C(OCCCN1CCCCC1)c1ccc(O)cc1

Structure (SMILES): C[n+]1c(-c2ccccc2)cc(CCCCc2cc(-c3ccccc3)[n+](C)c(-c3ccccc3)c2)cc1-c1ccccc1.[O-][Cl+3]([O-])([O-])[O-].[O-][Cl+3]([O-])([O-])[O-]
IC50 [3]: 2.72 µM (active)
IC50 [4]: 4.7 µM (active)
EC50 [10]: > 160 µM (inactive)

EC50 [11]: > 260 µM (inactive)
IC50 [7]: 1.18 µM (active)
Structure (SMILES): Cc1ccc([N+](=O)[O-])cc1/N=N/c1c(-c2ccc([N+](=O)[O-])cc2)[nH]n(C(N)=S)c1=O

Structure (SMILES): Cc1cc(C)n(-c2ccc(NC(=O)C3CCN(Cc4ccccn4)CC3)cc2)n1
AC50 (Escherichia coli [1]): 39.4 µM (active)
AC50 (Escherichia coli [2]): 51.6 µM (active)
